Laboratory results as given in patent US20230364204A1, “Bioactive Peptides, Compositions, Production Process, and Use of Bioactive Peptides as Anti-Tumoral Agents” (priority 2022, published 2023).

What was measured:
[1] = system: NFKB, Caspases (Caspase 9); experiment: Western blot protein expression; type: cell-based; settings: compared to the negative control
[2] = system: benign skin cells - fibroblasts (HDFa); experiment: MTT cell viability, benign fibroblasts; type: cell-based; settings: HDFa fibroblasts, 24, 48 and 72 h
Procedure: (§1) For the method of MTT, the cells were plated in 96-well sterile plates for cell culture with a cap at the density of 2 × 10^4 cells/well for treatments lasting 24 h and 1 × 10^4 cells/well for treatments lasting 48 h or more, completing the volume to 100 µL with culture medium. The plates were incubated for 8-16 h in an incubator at 37° C. and 5% CO2. The next day, the treatments were prepared in culture medium, applying 200 µL/well at the desired concentration, and the plates were placed in an incubator at 37° C. and 5% CO2for the duration of treatment. After the treatment period, 20 µL/well of a MTT solution was added in PBS (1×) at a concentration of 5 mg/mL, and the dye was incubated at 37° C. and 5% CO2 for 2.5 h. After incubation with MTT, Formazan salts were solubilized with the addition of 200 µL of dimethylsulfoxide solution (DMSO): isopropanol (3:1) and agitated for at least 15 minutes at room temperature. After complete dissolution of the salts, the absorbance was read in a spectrophotometer at 570 nm with endpoint protocol.
(§2) The calculation of cell viability was performed using the formula: […]
(§3) O.D.: optical density captured by spectrophotometer
NOTE: The Basal O.D. is the one found in the blank wells. […]

[3] = system: zebrafish embryos; experiment: Tolerability in zebrafish embryos; type: in vivo; settings: even at a dose 50,000 times higher than the in vitro MDAMB231 IC50 at 24 h
[4] = system: MDAMB231 cells (triple negative); experiment: MTT cell viability, tumor cells; type: cell-based
Procedure: as §1, §2, §3
NOTE: The Basal O.D. is the one found in the blank wells.
In order to determine the efficacy (comparison of doses and times for the MDAMB231 cell line) and safety (comparison between the effects on MDAMB231 and HDFa cells) of the peptide SEQ ID 1 - MFYPDSRCRGPSET (C-terminal region of Crotoxin B), named 3-NAntC, the Analysis of Variance (ANOVA) with Bonferroni post-hoc test was applied to the significance of 5% in GraphPad Prism software version 6.0.

[5] = system: MDAMB231 cells; experiment: BrdU cellular proliferation, tumor cells; type: cell-based; settings: MDAMB231, 24 h, 0.2 µg/mL (minimum decrease)
Procedure: (§4) The method of Bomodeoxyuridine (BrdU) quantification was carried out according to the Standard Operational Protocols Nos. 10 and 12 of the Laboratory of Clinical Cytology of the Faculty of Pharmaceutical Sciences of Ribeirao Preto (FCFRP -USP). In this method, for the BrdU quantification, cells were plated in 96-well sterile plates for cell culture with a cap at the density of 2 × 10^4 cells/well for treatments lasting 24 h and 1 × 10^4 cells/well for treatments with 48 h or more, completing the volume to 100 µL with culture medium. The plates were incubated for 8-16 h in an incubator at 37° C. and 5% CO2. The next day, the treatments were prepared in culture medium, applying 200 µL/well at the desired concentration, and the plates were placed in an incubator at 37° C. and 5% CO2 for the duration of treatment. After the treatment period, 20 µL/well of a BrdU-labeling was added and incubated at 37° C. and 5% CO2 for 2.5 h. After incubation with BrdU labeling, the plates were stored at 2-4° C. up to 1 week. […] Substrate was developed for 15 minutes and reaction was stopped with HCl 6 M solution and read in a spectrophotometer at 495 nm with endpoint.
(§5) The calculation of cell proliferation was performed using the formula: […]
(§6) O.D.: optical density captured by spectrophotometer NOTE: The Basal O.D. is the one found in the blank wells. […]

[6] = system: Rho-GTPases (Rho-A, Rho-C), protein elongation mechanism; experiment: Proteomics analysis; type: cell-based; settings: data not shown
[7] = system: MDAMB231 cell line; experiment: Cell cycle progression (propidium iodide flow cytometry); type: cell-based; settings: MDAMB231, 48 h, highest dosage
Procedure: For cell cycle progression method, cells were plated in 6-well sterile plates for cell culture with a cap at the density of 2.5 × 10^5 cells/well for treatments lasting 24 h or more, completing the volume with 1000 µL culture medium. The plates were incubated for 8-16 h in an incubator at 37° C. and 5% CO2. The next day, the treatments were prepared in culture medium, applying 2000 µL/well at the desired concentration, and the plates were placed in an incubator at 37° C. and 5% CO2 for the duration of treatment. After the treatment period, cells were collected in a conic 15 mL tube and washed with 1000 µL of PBS (1×). Cells were resuspended in 500 µL/tube of PBS (1×) and 4.5 mL of Ethanol 70°. Then, tubes were closed and kept at 2-4° C. for up to 2 months. Cells were washed with PBS (1×) and resuspended with 135 µL of PBS (1×). A solution of RnaseA at 100 µg/mL was added and incubated at RT for 30 minutes. After incubation, cells were labeled with 2 µL of Propidium Iodide at 100 µg/mL and read at the flow cytometer for size and DNA content.
In order to determine the effects of the peptide in cell cycle progression (MDAMB231 cell line), the Analysis of Variance (ANOVA) with Dunnet post-hoc test was applied to the significance of 5% in GraphPad Prism software version 6.0.

[8] = system: HDFa benign cell line; experiment: BrdU cellular proliferation, benign cells; type: cell-based; settings: maximum time of exposure
Procedure: as §4, §5, §6

CSCC[C@H](N)C(=O)N[C@@H](Cc1ccccc1)C(=O)N[C@@H](Cc1ccc(O)cc1)C(=O)N1CCC[C@H]1C(=O)N[C@@H](CC(=O)O)C(=O)N[C@@H](CO)C(=O)N[C@@H](CCCNC(=N)N)C(=O)N[C@@H](CS)C(=O)N[C@@H](CCCNC(=N)N)C(=O)NCC(=O)N1CCC[C@H]1C(=O)N[C@@H](CO)C(=O)N[C@@H](CCC(=O)O)C(=O)N[C@H](C(=O)O)[C@@H](C)O [3-NAntC, [H]-MFYPDSRCRGPSET-[OH]]
activation of Caspases, namely Caspase 9 [1]: greater activation | activation of pro-survival signals such as NFKB [1]: may inhibit the activation | effect on viability of benign skin cells (MTT) [2]: not decreasing the viability | embryo survival [3]: high embryo survival | tolerability in zebrafish embryos [3]: well tolerated | compared efficacy in decreasing MDAMB231 cells' viability (MTT, FIG. 13/14) ([4]; MDAMB231, SEQ IDs 2-10 compared to SEQ ID 1): highest antitumor effect | antitumor effect compared to Cisplatin (MTT) ([4]; MDAMB231, as early as 48 h of treatment): exceeds the antitumor effect of Cisplatin | decrease of proliferation rate (BrdU) [5]: 33% | Rho-GTPases expression (e.g. Rho-A and Rho-C) [6]: diminished | protein elongation mechanism [6]: continuously disabling | decrease in cells in G0/G1 [7]: 8.72% | increase of G2/M percentage [7]: 8.08% | effect on proliferation of benign cells (BrdU) [8]: did not alter the proliferation
